Measured values taken from ChEMBL document CHEMBL3045112, “In vitro antimicrobial assessment of coumarin-based s-triazinyl piperazines” (2012).
In brackets after ≈: the same amount, converted by molar mass.

Experiments:
Escherichia coli [1] = assay: Antibacterial activity against Escherichia coli after 24 hr by agar plate method; format: functional
Pseudomonas aeruginosa [2] = assay: Antibacterial activity against Pseudomonas aeruginosa after 24 hr by agar plate method; format: functional
Bacillus subtilis [3] = assay: Antibacterial activity against Bacillus subtilis after 24 hr by agar plate method; format: functional
Staphylococcus aureus [4] = assay: Antibacterial activity against Staphylococcus aureus after 24 hr by agar plate method; format: functional
Pseudomonas aeruginosa [5] = assay: Antibacterial activity against Pseudomonas aeruginosa at 100 ug/disk after 24 hr by disk diffusion test; settings: read-out: IZ
Escherichia coli [6] = assay: Antibacterial activity against Escherichia coli at 100 ug/disk after 24 hr by disk diffusion test; settings: read-out: IZ
Bacillus subtilis [7] = assay: Antibacterial activity against Bacillus subtilis at 100 ug/disk after 24 hr by disk diffusion test; settings: read-out: IZ
Staphylococcus aureus [8] = assay: Antibacterial activity against Staphylococcus aureus at 100 ug/disc after 24 hr by disk diffusion test; settings: read-out: IZ
Aspergillus niger [9] = assay: Antifungal activity against Aspergillus niger after 48 hr by agar plate method; format: functional
Candida albicans [10] = assay: Antifungal activity against Candida albicans after 48 hr by agar plate method; format: functional
Aspergillus niger [11] = assay: Antifungal activity against Aspergillus niger at 100 ug/disk after 48 hr by disk diffusion test; format: functional; settings: read-out: IZ
Candida albicans [12] = assay: Antifungal activity against Candida albicans at 100 ug/disk after 48 hr by disk diffusion test; format: functional; settings: read-out: IZ

| Structure (SMILES) | MIC (Escherichia coli [1]) [µg/mL] | MIC (Pseudomonas aeruginosa [2]) [µg/mL] | MIC (Bacillus subtilis [3]) [µg/mL] | MIC (Staphylococcus aureus [4]) [µg/mL] | zone of inhibition at 100 µg/disc (Pseudomonas aeruginosa [5]) [mm] | zone of inhibition at 100 µg/disc (Escherichia coli [6]) [mm] | zone of inhibition at 100 µg/disc (Bacillus subtilis [7]) [mm] | zone of inhibition at 100 µg/disc (Staphylococcus aureus [8]) [mm] | MIC (Aspergillus niger [9]) [µg/mL] | MIC (Candida albicans [10]) [µg/mL] | zone of inhibition at 100 µg/disc (Aspergillus niger [11]) [mm] | zone of inhibition at 100 µg/disc (Candida albicans [12]) [mm] |
| --- | --- | --- | --- | --- | --- | --- | --- | --- | --- | --- | --- | --- |
| O=C(O)c1cn(C2CC2)c2cc(N3CCNCC3)c(F)cc2c1=O [CIPROFLOXACIN] | 3.12 (≈ 9.43 µM) | 3.12 (≈ 9.43 µM) | 3.12 (≈ 9.43 µM) | 3.12 (≈ 9.43 µM) | 33 | 32 | 29 | 29 | – | – | – | – |
| CC(=O)N1CCN(c2ccc(OCC3COC(Cn4ccnc4)(c4ccc(Cl)cc4Cl)O3)cc2)CC1 (configuration not stated) [KETOCONAZOLE] | – | – | – | – | – | – | – | – | 6.25 (≈ 11.8 µM) | 3.12 (≈ 5.88 µM) | 30 | 33 |
